Several values for one entry are separate records, joined by “and”; a condition that tells them apart may be missing. Identical values can stand only once. Inconclusive results and toxic doses are left out.
Test system: P388 leukemia ip, CD2F1 mice, survival T/C
Assay: NCI In Vivo Anticancer Drug Screen. Data for tumor model P388 Leukemia (intraperitoneal) in CD2F1 (CDF1) mice
Conditions: endpoint: median survival time, higher = longer survival
Method in brief: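 Mice carrying the transplanted tumor received test compound or vehicle. Survival was recorded in each group, and the value is the treated-group measurement divided by that of the vehicle-treated control group.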

[1] = dose: 12.5 mg/kg/injection, schedule: Q01DX005 (ip), vehicle: saline with Tween-80
[2] = dose: 50.0 mg/kg/injection, schedule: Q01DX005 (ip), vehicle: saline with Tween-80
[3] = dose: 100.0 mg/kg/injection, schedule: Q01DX005 (ip), vehicle: saline with Tween-80
[4] = dose: 200.0 mg/kg/injection, schedule: Q01DX005 (ip), vehicle: saline with Tween-80
[5] = dose: 50.0 mg/kg/injection, schedule: Q01DX009 (ip), vehicle: saline with Tween-80
[6] = dose: 100.0 mg/kg/injection, schedule: Q01DX009 (ip), vehicle: Klucel (hydroxypropylcellulose) (HPC)
[7] = dose: 100.0 mg/kg/injection, schedule: Q01DX009 (ip), vehicle: saline with Tween-80
[8] = dose: 60.0 mg/kg/injection, schedule: Q01DX005 (ip), vehicle: saline with Tween-80

Compound: COC(=O)C(C)NC(=O)c1c2nc3c(C(=O)NC(C)C(=O)OC)ccc(C)c3oc-2c(C)c(=O)c1N (centres undefined)
- T/C (dose: 3.12 mg/kg/injection, schedule: Q01DX005 (ip), vehicle: distilled water + Tween-80): 100 % of control
- T/C (dose: 3.12 mg/kg/injection, schedule: Q01DX005 (ip), vehicle: saline with Tween-80): 98 % of control
- T/C (dose: 6.25 mg/kg/injection, schedule: Q01DX005 (ip), vehicle: distilled water + Tween-80): 100 % of control and 102 % of control
- T/C (dose: 6.25 mg/kg/injection, schedule: Q01DX005 (ip), vehicle: saline with Tween-80): 97 % of control
- T/C (dose: 12.5 mg/kg/injection, schedule: Q01DX005 (ip), vehicle: distilled water + Tween-80): 96 % of control
- T/C [1]: 87 % of control and 92 % of control
- T/C (dose: 25.0 mg/kg/injection, schedule: Q01DX005 (ip), vehicle: distilled water + Tween-80): 89 % of control and 94 % of control
- T/C (dose: 50.0 mg/kg/injection, schedule: Q01DX005 (ip), vehicle: distilled water + Tween-80): 90 % of control
- T/C [2]: 89 % of control
- T/C [3]: 89 % of control
- T/C [4]: 92 % of control

Compound: CCc1ccc(NC2=NCCO2)cc1
- T/C (dose: 12.5 mg/kg/injection, schedule: Q01DX009 (ip), vehicle: saline with Tween-80): 100 % of control
- T/C (dose: 25.0 mg/kg/injection, schedule: Q01DX009 (ip), vehicle: saline with Tween-80): 105 % of control
- T/C [5]: 100 % of control

Compound: OCCN(CCO)Cc1cccc2ccccc12
- T/C [2]: 94 % of control
- T/C [3]: 94 % of control

Compound: NNC(=O)c1ccccc1NC(=O)CSc1nc2ccccc2s1
- T/C (dose: 50.0 mg/kg/injection, schedule: Q01DX009 (ip), vehicle: Klucel (hydroxypropylcellulose) (HPC)): 104 % of control
- T/C [6]: 101 % of control
- T/C (dose: 200.0 mg/kg/injection, schedule: Q01DX009 (ip), vehicle: Klucel (hydroxypropylcellulose) (HPC)): 101 % of control

Compound: CCN(CC)S(=O)(=O)c1ccc(OC)c(N)c1
- T/C [5]: 90 % of control
- T/C [7]: 95 % of control
- T/C (dose: 100.0 mg/kg/injection, schedule: Q04DX003 (ip), vehicle: saline with Tween-80): 90 % of control
- T/C (dose: 200.0 mg/kg/injection, schedule: Q01DX009 (ip), vehicle: saline with Tween-80): 90 % of control
- T/C (dose: 200.0 mg/kg/injection, schedule: Q04DX003 (ip), vehicle: saline with Tween-80): 90 % of control

Compound: Clc1ccc2c(ccc3cccnc32)n1
- T/C (dose: 50.0 mg/kg/injection, schedule: Q04DX002 (ip), vehicle: saline with Tween-80): 100 % of control
- T/C (dose: 100.0 mg/kg/injection, schedule: Q04DX002 (ip), vehicle: saline with Tween-80): 97 % of control
- T/C (dose: 200.0 mg/kg/injection, schedule: Q04DX002 (ip), vehicle: saline with Tween-80): 94 % of control

Compound: O=C1OC(OC/C(Br)=C(/Br)COC2OC(=O)C(Cl)=C2Cl)C(Cl)=C1Cl (centres undefined)
- T/C [8]: 106 % of control
- T/C (dose: 120.0 mg/kg/injection, schedule: Q01DX005 (ip), vehicle: saline with Tween-80): 108 % of control

Compound: Oc1ccccc1C=NCCC[N-]CCCN=Cc1ccccc1O.[Co]
- T/C (dose: 12.5 mg/kg/injection, schedule: Q01DX009 (ip), vehicle: saline): 113 % of control
- T/C (dose: 100.0 mg/kg/injection, schedule: Q01DX009 (ip), vehicle: saline): 119 % of control

Compound: C=C[CH2][Sn]([CH2]C)([CH2]C)[CH2]C=C
- T/C (dose: 12.5 mg/kg/injection, schedule: Q01DX005 (ip), vehicle: saline): 107 % of control
- T/C (dose: 25.0 mg/kg/injection, schedule: Q01DX005 (ip), vehicle: saline): 114 % of control
- T/C (dose: 100.0 mg/kg/injection, schedule: Q01DX005 (ip), vehicle: saline): 154 % of control

Compound: Cc1cccc(C)c1NC(=O)Nc1cccc(C#N)c1
- T/C (dose: 15.0 mg/kg/injection, schedule: Q01DX005 (ip), vehicle: saline with Tween-80): 91 % of control
- T/C (dose: 30.0 mg/kg/injection, schedule: Q01DX005 (ip), vehicle: saline with Tween-80): 95 % of control
- T/C [8]: 91 % of control
- T/C (dose: 240.0 mg/kg/injection, schedule: Q01DX005 (ip), vehicle: saline with Tween-80): 89 % of control

Compound: Nc1ccc2c(c1)CC1CC(=O)NN=C21 (centres undefined)
- T/C (dose: 60.0 mg/kg/injection, schedule: Q01DX005 (ip), vehicle: saline): 98 % of control
- T/C (dose: 120.0 mg/kg/injection, schedule: Q01DX005 (ip), vehicle: saline): 92 % of control
- T/C (dose: 240.0 mg/kg/injection, schedule: Q01DX005 (ip), vehicle: saline): 98 % of control

Compound: COC(=O)/C=C(\Br)C(=O)OC
- T/C (dose: 1.56 mg/kg/injection, schedule: Q01DX009 (ip), vehicle: saline with Tween-80): 106 % of control
- T/C (dose: 3.12 mg/kg/injection, schedule: Q01DX009 (ip), vehicle: saline with Tween-80): 98 % of control
- T/C (dose: 6.25 mg/kg/injection, schedule: Q01DX009 (ip), vehicle: saline with Tween-80): 101 % of control

Compound: O=C1SC(Nc2ccc(Br)cc2)/C(=N\N=C2/C(Nc3ccc(Br)cc3)SC(=O)N2Cc2ccccc2)N1Cc1ccccc1 (centres undefined)
- T/C (dose: 100.0 mg/kg/injection, schedule: Q04DX002 (ip), vehicle: Klucel (hydroxypropylcellulose) (HPC)): 97 % of control
- T/C (dose: 200.0 mg/kg/injection, schedule: Q04DX002 (ip), vehicle: Klucel (hydroxypropylcellulose) (HPC)): 91 % of control
- T/C (dose: 400.0 mg/kg/injection, schedule: Q04DX002 (ip), vehicle: Klucel (hydroxypropylcellulose) (HPC)): 91 % of control

Compound: COc1cc2cc3c(nc2cc1OC)OC(=O)/C3=C\c1ccccc1
- T/C [2]: 99 % of control
- T/C [3]: 98 % of control
- T/C [4]: 103 % of control

Compound: CC(C)(C)N=NNc1ccc([N+](=O)[O-])cc1
- T/C (dose: 12.5 mg/kg/injection, schedule: Q01DX009 (ip), vehicle: distilled water + Tween-80): 106 % of control
- T/C (dose: 25.0 mg/kg/injection, schedule: Q01DX009 (ip), vehicle: distilled water + Tween-80): 100 % of control
- T/C (dose: 50.0 mg/kg/injection, schedule: Q01DX009 (ip), vehicle: distilled water + Tween-80): 93 % of control
- T/C (dose: 100.0 mg/kg/injection, schedule: Q01DX009 (ip), vehicle: distilled water + Tween-80): 86 % of control
- T/C (dose: 200.0 mg/kg/injection, schedule: Q01DX009 (ip), vehicle: distilled water + Tween-80): 96 % of control

Compound: COc1ccc(CC(C(=O)NN)S(=O)(=O)NC(C)(C)C)cc1OC (centres undefined)
- T/C (dose: 100.0 mg/kg/injection, schedule: Q04DX003 (ip), vehicle: Klucel (hydroxypropylcellulose) (HPC)): 98 % of control
- T/C (dose: 200.0 mg/kg/injection, schedule: Q04DX003 (ip), vehicle: Klucel (hydroxypropylcellulose) (HPC)): 98 % of control
- T/C (dose: 400.0 mg/kg/injection, schedule: Q04DX003 (ip), vehicle: Klucel (hydroxypropylcellulose) (HPC)): 95 % of control

Compound: CC1OC(OC2C(O)C(OCCc3ccc(O)c(O)c3)OC(CO)C2OC(=O)/C=C/c2ccc(O)c(O)c2)C(O)C(O)C1O (centres undefined)
- T/C (dose: 4.75 mg/kg/injection, schedule: Q01DX005 (ip), vehicle: Klucel (hydroxypropylcellulose) (HPC)): 106 % of control
- T/C (dose: 9.5 mg/kg/injection, schedule: Q01DX005 (ip), vehicle: Klucel (hydroxypropylcellulose) (HPC)): 100 % of control
- T/C (dose: 19.0 mg/kg/injection, schedule: Q01DX005 (ip), vehicle: Klucel (hydroxypropylcellulose) (HPC)): 100 % of control
- T/C (dose: 38.0 mg/kg/injection, schedule: Q01DX005 (ip), vehicle: Klucel (hydroxypropylcellulose) (HPC)): 100 % of control

Compound: CCCCCCCCCCCC[N+]1(CCCCCCCCCCCC)CCCC(C)C1 (centres undefined)
- T/C (dose: 0.75 mg/kg/injection, schedule: Q01DX009 (ip), vehicle: Klucel (hydroxypropylcellulose) (HPC)): 113 % of control

Compound: CCN(CC)Cc1c(C)[nH]c2ccc(NC(C)=O)cc2c1=O
- T/C [5]: 116 % of control
- T/C [7]: 114 % of control

Compound: COc1ccc(S(=O)(=O)N/N=C(/C(=O)O)c2ccccc2)cc1
- T/C [1]: 95 % of control
- T/C (dose: 25.0 mg/kg/injection, schedule: Q01DX005 (ip), vehicle: saline with Tween-80): 94 % of control
- T/C [2]: 106 % of control
- T/C [3]: 100 % of control
- T/C [4]: 109 % of control and 112 % of control
- T/C (dose: 400.0 mg/kg/injection, schedule: Q01DX005 (ip), vehicle: saline with Tween-80): 109 % of control

Compound: C=C1C(=O)C(CCC)=C(CC)C1O (centres undefined)
- T/C [8]: 105 % of control

Compound: CP1(=S)CC[C@H]2C3=C(CC[C@@H]21)CC(=O)CC3 (some centres undefined)
- T/C (dose: 50.0 mg/kg/injection, schedule: Q01DX005 (ip), vehicle: saline + Tween-80 + alcohol): 106 % of control
- T/C (dose: 100.0 mg/kg/injection, schedule: Q01DX005 (ip), vehicle: saline + Tween-80 + alcohol): 103 % of control
- T/C (dose: 200.0 mg/kg/injection, schedule: Q01DX005 (ip), vehicle: saline + Tween-80 + alcohol): 97 % of control

Compound: Cc1sc(NCc2ccccc2)c(C#N)c1C
- T/C (dose: 6.25 mg/kg/injection, schedule: Q01DX009 (ip), vehicle: Klucel (hydroxypropylcellulose) (HPC)): 101 % of control
- T/C (dose: 12.5 mg/kg/injection, schedule: Q01DX009 (ip), vehicle: Klucel (hydroxypropylcellulose) (HPC)): 97 % of control
- T/C (dose: 25.0 mg/kg/injection, schedule: Q01DX009 (ip), vehicle: Klucel (hydroxypropylcellulose) (HPC)): 93 % of control
- T/C [6]: 86 % of control
